# Reference: paper PMC7160333, “Physiological Role of Glutamate Dehydrogenase in Cancer Cells” (Frontiers in Oncology, 2020)
# Read-outs that look alike come from different tables or passages of the source.
# System: SiHa cells
# Settings: for Duplication time: 2-D culture, n = 3; for Maximal cellular densities: reached at day 6
# Method: All cancer and non-cancer cell lines used were purchased from ATCC and cultured in DMEM (Sigma-Aldrich) supplemented with 10% fetal bovine serum (Biowest, Nuaillé, France) and 10,000 U penicillin/streptomycin (Sigma-Aldrich) and placed under a humidified atmosphere of 5% CO2/95% air at 37°C.
# Cell growth was followed by counting cellular density every 24 h during 7 to 8 days. […] The duplication time was determined by using the following equation: n=1/[3.32(logNF-logNI)]/(tF-tI) , where NF represents the number of cultured cells at the end of the exponential growth phase; NI represents the number of cells at the beginning of the growth curve; tF is the final time at which cells were harvested, and tI is the initial culture time. The specific growth rate μ was calculated from the slope of a semilogarithmic plot of cell densities in the exponential growth phase vs. time ([88]).
compound,measurement,setting,value
"Cl.N [NH4Cl, Ammonium chloride]",Duplication time,+5 mM NH4Cl,51 ± 4 h
same,Duplication time,+10 mM NH4Cl,55 ± 5 h
same,Maximal cellular densities,+5 mM NH4Cl,86 ± 7 ×10^3
same,Maximal cellular densities,+10 mM NH4Cl,82 ± 5 ×10^3
